{"source": "paper PMC5882964", "about": "“Aspermerodione, a novel fungal metabolite with an unusual 2,6-dioxabicyclo[2.2.1]heptane skeleton, as an inhibitor of penicillin-binding protein 2a” (Scientific Reports, 2018)", "molecular_target": "T1, penicillin-binding protein 2a (PBP2a) (Staphylococcus aureus, UniProt Q7DHH4)", "T1 construct": "gene mecA; residues 23-668, pET28a, from mecA of Staphylococcus aureus ATCC 43300", "T1 sequence (Q7DHH4 entry or part of it)": "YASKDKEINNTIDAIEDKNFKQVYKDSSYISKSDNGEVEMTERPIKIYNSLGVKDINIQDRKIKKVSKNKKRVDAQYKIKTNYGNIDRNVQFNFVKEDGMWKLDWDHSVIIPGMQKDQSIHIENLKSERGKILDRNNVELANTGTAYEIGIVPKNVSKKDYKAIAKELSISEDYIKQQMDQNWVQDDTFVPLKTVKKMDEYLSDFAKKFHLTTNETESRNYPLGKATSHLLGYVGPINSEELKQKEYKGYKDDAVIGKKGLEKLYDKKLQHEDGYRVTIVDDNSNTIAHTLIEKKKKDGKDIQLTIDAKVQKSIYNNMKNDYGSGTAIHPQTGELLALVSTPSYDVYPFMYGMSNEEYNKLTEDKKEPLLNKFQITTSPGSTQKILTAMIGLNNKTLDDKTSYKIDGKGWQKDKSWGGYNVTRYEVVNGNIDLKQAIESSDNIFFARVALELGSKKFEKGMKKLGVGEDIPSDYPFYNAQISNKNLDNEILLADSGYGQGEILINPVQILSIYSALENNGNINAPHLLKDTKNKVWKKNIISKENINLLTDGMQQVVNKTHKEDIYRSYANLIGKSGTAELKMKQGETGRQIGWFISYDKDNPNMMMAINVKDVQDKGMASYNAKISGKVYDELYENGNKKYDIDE", "experiment": "microscale thermophoresis (MST) with labelled recombinant PBP2a", "data": [{"smiles": "COC(=O)C1=C[C@]2(C)C[C@@]34CC[C@H]5C(C)(C)C(=O)C=C[C@]5(C)[C@]35OC[C@]14[C@](C)(CC2=O)O5", "note": "[compound 1, aspermerodione]", "values": [{"measurement": "Kd", "value": "18.4 ± 1.29", "unit": "µM"}]}]}
